We go through 11 compounds from patent US20140023611A1 (priority 2010, published 2014).

Structures are written as SMILES.

One assay has as its target T1, human NaP2b (SLC34A2) (Homo sapiens, UniProt O95436).
T1 construct: host or cells: HEK293
T1 sequence (O95436 1-690): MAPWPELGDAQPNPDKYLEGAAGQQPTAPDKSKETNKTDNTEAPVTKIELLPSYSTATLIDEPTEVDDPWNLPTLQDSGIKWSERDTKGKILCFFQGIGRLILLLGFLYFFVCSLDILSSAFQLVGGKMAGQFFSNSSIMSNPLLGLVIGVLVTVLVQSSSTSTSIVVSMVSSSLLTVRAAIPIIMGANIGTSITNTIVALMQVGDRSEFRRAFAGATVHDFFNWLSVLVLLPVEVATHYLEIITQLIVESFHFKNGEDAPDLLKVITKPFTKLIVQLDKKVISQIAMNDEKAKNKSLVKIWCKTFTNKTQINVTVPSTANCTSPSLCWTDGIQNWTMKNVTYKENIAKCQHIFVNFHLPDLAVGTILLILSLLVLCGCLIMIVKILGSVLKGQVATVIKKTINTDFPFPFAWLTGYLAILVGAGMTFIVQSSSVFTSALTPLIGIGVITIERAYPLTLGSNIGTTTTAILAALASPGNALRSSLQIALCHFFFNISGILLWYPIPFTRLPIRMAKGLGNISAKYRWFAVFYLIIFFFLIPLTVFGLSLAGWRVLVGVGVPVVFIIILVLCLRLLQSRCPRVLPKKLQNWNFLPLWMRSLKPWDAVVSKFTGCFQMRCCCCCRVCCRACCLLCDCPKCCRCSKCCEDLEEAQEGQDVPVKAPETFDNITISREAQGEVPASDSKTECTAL
The assay is described as follows: Inhibition of NaP2b-mediated Pi (33P) uptake in transfected HEK293 cells, human NaP2b. Format: cell-based. Conditions: read-out: pIC50 range for human NaP2b (converted). How it is done:
HEK293 cells were obtained from the American Type Culture collection and propagated per their instructions. Expression clones for rat and human NaP2b (SLC34A2) were obtained from Open Biosystems (Catalog numbers MRN1768-9510282, and MHS1010-99823026, respectively). The sequence of the human protein was mutated to insert a threonine after residue 37, and to introduce a N39D mutation.
The rate of phosphate (Pi) uptake into HEK293 cells was measured using a modification of the method described by Mohrmann et al. (Mohrmann, I., Mohrmann, M., Biber, J., and Murer, H. (1986) Am. J. Phys. 250(3 Pt 1):G323-30.) Transfected HEK293 cells were treated with a pharmacological agent to minimize endogenous PiT-mediated phosphate transport activity, such that the only remaining sodium-dependent phosphate transport activity is that which was bestowed by introduction of the NaP2b genes.
Cells were seeded into 96-well plates at 25,000 cells/well and cultured overnight. Lipofectamine 2000 (Invitrogen) was used to introduce the NaP2b cDNA, and the cells were allowed to approach confluence during a second overnight incubation. […] Cells were then overlayed with either choline uptake buffer or sodium uptake buffer (14 mM Tris, 137 mM sodium chloride, 5.4 mM KCl, 2.8 mM CaCl2, 1.2 mM MgSO4, 100 uM KH2PO4, PiT-silencing agent, 1 mg/mL Bovine Serum Albumin, pH 7.4) containing 6-9 uCi/mL ^33P orthophosphoric acid (Perkin Elmer) and test compound. Each compound was tested at twelve concentrations ranging from 0.1 nM to 30 uM. Assays were run in duplicate.
After incubation for 3-30 minutes at room temperature, assay mixtures were removed, and the cells were washed twice with ice cold stop solution (137 mM sodium chloride, 14 mM Tris, pH 7.4). Cells were lysed by addition of 20 μL 0.1% Tween 80 followed by 100 μL scintillation fluid, and counted using a TopCount (Perkin Elmer).
pIC50 (the negative log of the IC50) values of the test compounds were calculated using GraphPad Prism.

A further assay addresses T2, rat NaP2b (SLC34A2) (Rattus norvegicus, UniProt Q9JJ09).
T2 construct: host or cells: HEK293
T2 sequence (Q9JJ09 1-695): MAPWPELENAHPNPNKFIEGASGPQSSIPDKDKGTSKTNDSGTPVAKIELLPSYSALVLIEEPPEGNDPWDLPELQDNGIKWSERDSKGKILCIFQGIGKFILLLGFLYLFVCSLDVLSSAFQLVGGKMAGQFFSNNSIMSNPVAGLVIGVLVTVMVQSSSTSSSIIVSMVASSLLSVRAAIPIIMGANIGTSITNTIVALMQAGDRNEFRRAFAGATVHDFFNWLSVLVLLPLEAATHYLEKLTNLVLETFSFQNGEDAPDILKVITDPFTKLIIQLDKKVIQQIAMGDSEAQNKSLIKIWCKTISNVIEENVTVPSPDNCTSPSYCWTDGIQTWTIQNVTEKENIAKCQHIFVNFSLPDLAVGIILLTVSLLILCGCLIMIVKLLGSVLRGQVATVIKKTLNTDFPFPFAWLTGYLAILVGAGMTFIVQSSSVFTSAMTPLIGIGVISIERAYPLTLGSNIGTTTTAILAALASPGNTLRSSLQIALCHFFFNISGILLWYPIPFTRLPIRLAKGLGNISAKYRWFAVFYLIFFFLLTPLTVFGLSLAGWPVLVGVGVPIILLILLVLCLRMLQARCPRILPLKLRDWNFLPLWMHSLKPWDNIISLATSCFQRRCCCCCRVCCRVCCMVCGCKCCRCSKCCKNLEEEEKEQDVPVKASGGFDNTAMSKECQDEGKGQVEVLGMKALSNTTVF
The experiment in a line: Inhibition of NaP2b-mediated Pi (33P) uptake in transfected HEK293 cells, rat NaP2b. Format: cell-based. The following applies: 33P Pi uptake, 0.1 mM phosphate, value given as pIC50 range. The procedure, abridged: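 HEK293 cells were transiently transfected with NaP2b cDNA using Lipofectamine and grown near confluence. Compounds were tested at twelve concentrations from 0.1 nM to 30 uM in duplicate, and 33P-phosphate uptake was counted by scintillation after lysis. Results are expressed as pIC50.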

With `CCN(CC)c1ccc(NC(=O)c2cccc(CCCOCCOCCOCCOCCC(=O)N3CCN(S(=O)(=O)c4ccc(C(=O)O)cc4)CC3)c2)c(-c2cc(C(=O)NCc3cccc(C(F)(F)F)c3)ccn2)c1` [Example 290, 4-(4-(16-(3-(4-(diethylamino)-2-(4-(3-(trifluoromethyl)benzylcarbamoyl)pyridin-2-yl)phenylcarbamoyl)phenyl)-4,7,10,13-tetraoxahexadecane)piperazin-1-ylsulfonyl)benzoic acid], the figures for the IC50 on human NaP2b (SLC34A2) and against rat NaP2b (SLC34A2) were 1 to 7.94 µM and 10 to 31.6 µM, respectively.

As for `CN(CCN1CCCN(C(=O)OC(C)(C)C)CC1)C(=O)c1cccc(C(=O)Nc2ccc(N3CCCCC3)cc2-c2cc(C(=O)N[C@H]3CCCc4ccccc43)ccn2)c1` [Example 219, (S)-tert-butyl 4-(2-(N-methyl-3-(4-(piperidin-1-yl)-2-(4-(1,2,3,4-tetrahydronaphthalen-1-ylcarbamoyl)pyridin-2-yl)phenylcarbamoyl)benzamido)ethyl)-1,4-diazepane-1-carboxylate], the IC50 at human NaP2b (SLC34A2) and against rat NaP2b (SLC34A2) was under 1 µM throughout.

Regarding `CCN(CC)c1ccc(NC(=O)c2cccc(CCCOCCOCCOCCOCCNS(=O)(=O)c3cccc(C(=O)O)c3)c2)c(-c2cc(C(=O)NCc3cccc(C(F)(F)F)c3)ccn2)c1` [Example 289, 3-(N-(15-(3-(4-(diethylamino)-2-(4-(3-(trifluoromethyl)benzylcarbamoyl)pyridin-2-yl)phenylcarbamoyl)phenyl)-3,6,9,12-tetraoxapentadecyl)sulfamoyl)benzoic acid], the IC50 at human NaP2b (SLC34A2) and on rat NaP2b (SLC34A2) was 1 to 7.94 µM throughout.

As for `CCN(CC)c1ccc(NC(=O)c2cccc(CCCOCCOCCOCCOCCNC(=O)N(C)CCOCCOCCOCCOCCOCCOCCOC)c2)c(-c2cc(C(=O)NCc3cccc(C(F)(F)F)c3)ccn2)c1` [Example 273, 2-(5-(diethylamino)-2-(3-(23-methyl-24-oxo-2,5,8,11,14,17,20,28,31,34,37-undecaoxa-23,25-diazatetracontan-40-yl)benzamido)phenyl)-N-(3-(trifluoromethyl)benzyl)isonicotinamide], the IC50 at human NaP2b (SLC34A2) and against rat NaP2b (SLC34A2) was 1 to 7.94 µM each time.

For `CN(CCN1CCOC[C@H]1C(=O)N(C)CCOCCOCCOCCC(=O)OC(C)(C)C)C(=O)c1cccc(C(=O)Nc2ccc(N3CCCCC3)cc2-c2cc(C(=O)N[C@H]3CCCc4ccccc43)ccn2)c1` [Example 242, tert-butyl 2-methyl-1-((S)-4-(2-(N-methyl-3-(4-(piperidin-1-yl)-2-(4-((S)-1,2,3,4-tetrahydronaphthalen-1-ylcarbamoyl)pyridin-2-yl)phenylcarbamoyl)benzamido)ethyl)morpholin-3-yl)-1-oxo-5,8,11-trioxa-2-azatetradecan-14-oate], the IC50 on human NaP2b (SLC34A2) and against rat NaP2b (SLC34A2) was under 1 µM each time.

As to `CCN(CC)c1ccc(NC(=O)c2cccc(C(=O)N(C)CCN3CCN(C(=O)N(C)CCOCCOCCOCCC(=O)N4CCN(CCOCCO)CC4)CC3)c2)c(-c2cc(C(=O)N[C@H]3CCCc4ccccc43)ccn2)c1` [Example 231, 3-N-[4-(diethylamino)-2-(4-{[(1S)-1,2,3,4-tetrahydronaphthalen-1-yl]carbamoyl}pyridin-2-yl)phenyl]-1-N-(2-{4-[(2-{2-[2-(3-{4-[2-(2-hydroxyethoxy)ethyl]piperazin-1-yl}-3-oxopropoxy)ethoxy]ethoxy}ethyl)(methyl)carbamoyl]piperazin-1-yl}ethyl)-1-N-methylbenzene-1,3-dicarboxamide], the IC50 on human NaP2b (SLC34A2) and at rat NaP2b (SLC34A2) was 10 to 31.6 µM each time.

Turning to `COCCOCCOCCOCCOCCOCCOCCOC(=O)N1CCCN(CCN(C)C(=O)c2cccc(C(=O)Nc3ccc(N4CCCCC4)cc3-c3cc(C(=O)N[C@H]4CCCc5ccccc54)ccn3)c2)CC1` [Example 214, (S)-2,5,8,11,14,17,20-heptaoxadocosan-22-yl 4-(2-(N-methyl-3-(4-(piperidin-1-yl)-2-(4-(1,2,3,4-tetrahydronaphthalen-1-ylcarbamoyl)pyridin-2-yl)phenylcarbamoyl)benzamido)ethyl)-1,4-diazepane-1-carboxylate], the IC50 on human NaP2b (SLC34A2) and on rat NaP2b (SLC34A2) was 1 to 7.94 µM in each case.

In the case of `CCN(CC)c1ccc(NC(=O)c2cccc(C#CCOCCOCCOCCOCCOCCOCCOCCOCCOC)c2)c(-c2cc(C(=O)NCc3cccc(C(F)(F)F)c3)ccn2)c1` [Example 268, 2-(2-(3-(2,5,8,11,14,17,20,23,26-nonaoxanonacos-28-yn-29-yl)benzamido)-5-(diethylamino)phenyl)-N-(3-(trifluoromethyl)benzyl)isonicotinamide], the IC50 at human NaP2b (SLC34A2) and at rat NaP2b (SLC34A2) was under 1 µM in each case.

Turning to `CCN(CC)c1ccc(NC(=O)c2cccc(C(=O)N(C)CCN(C)CCOCCOCCOCCNC(=O)NCCN3CCOCC3)c2)c(-c2cc(C(=O)N[C@H]3CCCc4ccccc43)ccn2)c1` [Example 223, (S)—N1-(4-(diethylamino)-2-(4-(1,2,3,4-tetrahydronaphthalen-1-ylcarbamoyl)pyridin-2-yl)phenyl)-N3-methyl-N3-(17-methyl-1-morpholino-4-oxo-8,11,14-trioxa-3,5,17-triazanonadecan-19-yl)isophthalamide], the IC50 at human NaP2b (SLC34A2) was over 31.6 µM; against rat NaP2b (SLC34A2), 10 to 31.6 µM.

As to `O=C(O)CCSCc1cccc(C(=O)Nc2ccc(N3CCCCC3)cc2-c2cc(NCc3cccc(C(F)(F)F)c3)ncn2)c1` [Example 3.1, 3-((3-((4-(Piperidin-1-yl)-2-(6-((3-(trifluoromethyl)benzyl)amino)pyrimidin-4-yl)phenyl)carbamoyl)benzyl)thio)propanoic acid], the IC50 on human NaP2b (SLC34A2) and on rat NaP2b (SLC34A2) was 1 to 7.94 µM throughout.

In the case of `CCN(CC)c1ccc(NC(=O)c2cccc(C(=O)N(C)CCN(CCOC)CCOCCOCCOCCC(=O)N(C)CCN3CCOCC3)c2)c(-c2cc(C(=O)NCc3cccc(C(F)(F)F)c3)ccn2)c1` [Example 338, N^1-(4-(Diethylamino)-2-(4-(3-(trifluoromethyl)benzylcarbamoyl)pyridin-2-yl)phenyl)-N^3-(3-(2-methoxyethyl)-16-methyl-18-morpholino-15-oxo-6,9,12-trioxa-3,16-diazaoctadecyl)-N^3-methylisophthalamide], the IC50 on human NaP2b (SLC34A2) and at rat NaP2b (SLC34A2) was 1 to 7.94 µM each time.
